Here are results for 29 compounds from US10478425B2, “5-phenylazaindole derivative having AMPK-activating activity” (Shionogi & Co., Ltd., priority 2016, dated 2019).

Each structure is given as a SMILES string. “And” between values parts separate entries of the source, which are not always exact repeats. Identical values can stand only once. Like-named read-outs stand apart in the source and are kept apart here.

For the experiment, the target named is T1, Human AMPK α2β2γ1 (Homo sapiens, UniProt O43741+P54646).
T1 construct: The full length cDNAs of human AMPK β2 (NM_005399.3) and human AMPK α2 (NM_006252.3); The full length cDNAs of human AMPK β2 (NM_005399.3); the full length cDNA of human AMPK γ1 (NM_002733.3) had been inserted into pET28b(+); 6×His (N); made in house; host or cells: Escherichia coli BL21 CodonPlus (DE3)-RIL
Put plainly: Test Example 2: activation of phosphorylated human AMPK α2β2γ1 (mobility-shift kinase assay, FL-Peptide 7). To be noted: for EC150: compound concentration showing 150% relative to the control (100%), human AMPK α2β2γ1 phosphorylated with CaMKK2; for Emax: maximum rate of increase in activity within the measurement range, control = 100%. Type of experiment: biochemical. The protocol:
The full length cDNAs of human AMPK β2 (NM_005399.3) and human AMPK α2 (NM_006252.3) were inserted into the MCS1 and MCS2 of the pETDuet-1 vector to prepare a human AMPK β2 and human AMPK α2 (6×His tag at the 5′ terminus) expressing plasmid. The plasmid was cotransfected with an expression plasmid, in which the full length cDNA of human AMPK γ1 (NM_002733.3) had been inserted into pET28b(+), into BL21 CodonPlus (DE3)-RIL to obtain an expression strain. The expression strain was cultured in TB medium, followed by induction with 0.5 mM IPTG, and cultured at 25° C. for 3 hours and then harvested. After ultrasonication, supernatant was collected and applied to Histrap FF column (GE) and RESOUECE Q column (GE) to prepare 12.5 mg of purified sample containing three types of subunit from 1.8 L of broth.
An expression vector, in which the full length cDNA of human CAMKK β (NM_172226.1) had been inserted into pGEX-6P-3, was transfected into BL21 Star (DE3). The expression strain was cultured in TB medium, followed by induction with 0.5 mM IPTG, and cultured at 25° C. for 3 hours and then harvested. After ultrasonication, supernatant was collected and applied to GSTrap FF column (GE) to prepare 14 mg of GST-fused CAMKK β from 720 ml of broth.
Thus, phosphorylation treatment was carried out as pretreatment.
Human AMPK α2β2γ1 in an amount to give a conversion rate of approximately 10% by reaction for 2 hours, and CaMKK2 in an amount capable of sufficiently imparting activity to AMPK for one hour were mixed in a buffer solution consisting of a 50 mM HEPES-NaOH buffer solution (pH 7.0), 100 mM NaCl, 5 mM magnesium chloride, 0.1% bovine serum albumin, 0.2 mM sodium orthovanadate(V), 1 mM ethylene glycol-bis(2-aminoethyl ether)-N,N,N′,N′-tetraacetic acid (EGTA), 5 mM disodium β-glycerophosphate, 1 mM dithiothreitol and 0.2 mM ATP, and the resulting liquid was left to stand at 25° C. for 1 to 1.5 hours to sufficiently phosphorylate AMPK.
After that, to the enzyme liquid, which had been subjected to phosphorylation treatment, a compound dissolved in DMSO was added so as to have a 1% DMSO concentration. The resulting liquid was left to stand for 10 minutes.
To the liquid, a substrate solution consisting of a 50 mM HEPES-NaOH buffer solution (pH 7.0), 100 mM NaCl, 10 mM magnesium chloride, 0.1% bovine serum albumin, 0.2 mM sodium orthovanadate(V), 1 mM ethylene glycol-bis(2-aminoethyl ether)-N,N,N′,N′-tetraacetic acid (EGTA), 5 mM disodium β-glycerophosphate, 2 mM dithiothreitol, 0.4 mM ATP and 3 μM FL-Peptide 7 (manufactured by Caliper Life Sciences, Inc.) was added in equal amount (10 μl in total). The resulting liquid was allowed to react at 25° C. for 2 hours, then 10 μl of 20 mM EDTA was added thereto to stop the reaction.
To detect phosphorylated fluorescent substrates, the reaction mixture was applied to a measuring device, LabChip EZ Reader II manufactured by Caliper Life Science, Inc., for detecting fluorescence by using differences in mobility due to differences in charge. The setting conditions for the device were pressure, −1.5 PSI; upstream voltage, −2250 V; downstream voltage, −400 V; post sample buffer sip time, 40 seconds; final delay, 120 seconds; and peak order, Product First.
A conversion rate was calculated from the peak heights of the obtained substrate and product. The conversion rate when not containing a compound was used as a control, and a concentration dependent curve was made by plotting the rate of increase in activity to the control at each concentration of a compound.

T1 sequence (P54646 whole entry): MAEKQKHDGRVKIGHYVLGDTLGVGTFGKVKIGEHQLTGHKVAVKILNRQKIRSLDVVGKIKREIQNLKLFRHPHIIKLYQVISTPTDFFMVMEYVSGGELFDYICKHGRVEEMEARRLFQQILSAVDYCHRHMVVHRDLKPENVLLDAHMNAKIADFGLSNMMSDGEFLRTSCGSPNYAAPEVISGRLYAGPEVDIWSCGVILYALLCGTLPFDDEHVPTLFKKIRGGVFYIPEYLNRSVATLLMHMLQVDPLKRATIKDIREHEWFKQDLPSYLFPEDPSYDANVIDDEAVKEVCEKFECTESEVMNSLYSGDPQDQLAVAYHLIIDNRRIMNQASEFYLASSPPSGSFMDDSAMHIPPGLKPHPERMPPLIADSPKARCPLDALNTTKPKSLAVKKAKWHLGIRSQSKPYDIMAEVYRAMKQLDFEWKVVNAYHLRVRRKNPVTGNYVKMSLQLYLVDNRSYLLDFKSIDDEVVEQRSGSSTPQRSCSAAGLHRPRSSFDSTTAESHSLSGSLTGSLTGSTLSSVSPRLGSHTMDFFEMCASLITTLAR
T1 sequence (O43741 whole entry): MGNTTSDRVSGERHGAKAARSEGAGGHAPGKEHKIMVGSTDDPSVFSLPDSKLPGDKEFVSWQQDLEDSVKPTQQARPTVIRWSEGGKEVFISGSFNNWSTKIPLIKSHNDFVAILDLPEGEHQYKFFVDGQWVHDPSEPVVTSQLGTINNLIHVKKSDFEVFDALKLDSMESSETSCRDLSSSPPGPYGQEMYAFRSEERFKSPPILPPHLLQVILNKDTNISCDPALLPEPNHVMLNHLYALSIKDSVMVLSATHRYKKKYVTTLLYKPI
T1 sequence (P54619 whole entry partner): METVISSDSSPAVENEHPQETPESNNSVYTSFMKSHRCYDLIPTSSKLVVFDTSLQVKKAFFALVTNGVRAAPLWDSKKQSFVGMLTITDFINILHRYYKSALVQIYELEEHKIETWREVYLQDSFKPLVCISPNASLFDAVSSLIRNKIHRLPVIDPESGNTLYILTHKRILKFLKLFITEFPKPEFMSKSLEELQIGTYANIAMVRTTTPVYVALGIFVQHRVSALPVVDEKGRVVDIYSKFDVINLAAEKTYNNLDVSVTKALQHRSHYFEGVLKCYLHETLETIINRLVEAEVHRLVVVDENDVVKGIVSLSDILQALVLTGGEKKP

On to `O[C@@H]1CO[C@H]2[C@@H]1OC[C@H]2Oc1cc2nc(-c3ccc(-c4ccc(OC5CNC5)cc4)cc3)c(F)cc2[nH]1` [Compound I-1-63], for which the EC150 is on record as 3.2 nM. The Emax (in general, the size of the effect at its maximum, as opposed to the concentration needed) (read-out: Emax) stood at 361%.
The corresponding values for `O[C@@H]1CO[C@H]2[C@@H]1OC[C@H]2Oc1cc2nc(-c3ccc(-c4ccc(C5=NCCN5)cc4)cc3)c(F)cc2[nH]1` [Compound I-1-38] are 0.99 nM and 470%.
Take `O[C@@H]1CO[C@H]2[C@@H]1OC[C@H]2Oc1cc2nc(-c3ccc([C@@H]4CCCC[C@H]4O)cc3)c(F)cc2[nH]1` [Compound I-2-17]: the EC150 amounted to 15 nM. Also, the Emax (read-out: Emax) came to 600%.
As to `CCC(=O)NC1CCN(c2ccc(-c3nc4cc(O[C@@H]5CO[C@H]6[C@@H]5OC[C@H]6O)[nH]c4cc3F)cc2)CC1` [Compound I-1-12], the maximum response (Emax) is 497% and 523%.
Regarding `CN1CCC(Oc2ccc(-c3ccc(-c4nc5cc(O[C@@H]6CO[C@H]7[C@@H]6OC[C@H]7O)[nH]c5cc4F)cc3)cc2)C1` (some centres unmarked) [Compound I-1-26], the EC150 came to 1.5 nM. For the same compound, under “read-out: Emax”, the Emax was 353%.
Take `O=C(Nc1ccc(-c2ccc(-c3nc4cc(O[C@@H]5CO[C@H]6[C@@H]5OC[C@H]6O)[nH]c4cc3F)cc2)cc1)[C@@H]1C[C@@H]1F` [Compound I-2-05]: the EC150 stood at 6.8 nM. Further, the Emax (read-out: Emax) was 632%.
`CS(C)(=O)=Nc1ccc(-c2ccc(-c3nc4cc(O[C@@H]5CO[C@H]6[C@@H]5OC[C@H]6O)[nH]c4cc3Cl)cc2)cc1` [Compound I-1-30]: the EC150 was found to be 1.7 nM. Also, the Emax (read-out: Emax) worked out at 500%.
The like results for `COC(=O)N1CCN(c2ccc(-c3nc4cc(O[C@@H]5CO[C@H]6[C@@H]5OC[C@H]6O)[nH]c4cc3F)cc2)CC1` [Compound I-1-57] were, in that order, 32 nM and 550%.
The like results for `CN(C)S(=O)(=O)c1ccc(-c2ccc(-c3nc4cc(O[C@@H]5CO[C@H]6[C@@H]5OC[C@H]6O)[nH]c4cc3F)cc2)nc1` [Compound I-1-33] were, in that order, 6.5 nM and 464%.
On to `CC(C)OC(=O)NC1CCN(c2ccc(-c3nc4cc(O[C@@H]5CO[C@H]6[C@@H]5OC[C@H]6O)[nH]c4cc3F)cc2)CC1` [Compound I-1-34], for which the EC150 is on record as 8.6 nM. Also, the Emax (read-out: Emax) was found to be 518%.
Turning to `COC(=O)N1CCC(Oc2ccc(-c3ccc(-c4nc5cc(O[C@@H]6CO[C@H]7[C@@H]6OC[C@H]7O)[nH]c5cc4F)cc3)cc2)C1` (some centres unmarked) [Compound I-2-51], the EC150 is given as 9.7 nM. For the same compound, under “read-out: Emax”, the Emax turned out to be 590%.
The like results for `C[S@](=O)(=Nc1ccc(-c2ccc(-c3nc4cc(O[C@@H]5CO[C@H]6[C@@H]5OC[C@H]6O)[nH]c4cc3F)cc2)cc1)c1ccccc1` [Compound I-1-18] were, in that order, 19 nM and 415%.
The corresponding values for `OC[C@H]1OC[C@@H](Oc2cc3nc(-c4ccc(C5(CO)CC5)cc4)c(F)cc3[nH]2)C1(F)F` [Compound I-2-90] are 1.9 nM and 406%.
Take `C[S+]([O-])c1ccc(-c2ccc(-c3nc4cc(O[C@@H]5CO[C@H]6[C@@H]5OC[C@H]6O)[nH]c4cc3F)cc2)cc1` (single isomer, unassigned) [Compound I-2-09]: the EC150 is 1.9 nM and the Emax is recorded as 598%.
For `O[C@@H]1CO[C@H]2[C@@H]1OC[C@H]2Oc1cc2nc(-c3ccc(-c4ccc(OC5COC5)cc4)cc3)c(F)cc2[nH]1` [Compound I-1-28], the EC150 turned out to be 15 nM. The maximal effect (Emax) (read-out: Emax) came out at 596%.
The corresponding values for `CO[C@@H]1CO[C@H]2[C@@H]1OC[C@H]2Oc1cc2nc(-c3ccc(-c4ccc(N=S(C)(C)=O)cc4)cc3)c(F)cc2[nH]1` [Compound I-1-07] are 15 nM and 189%.
Take `CC(C)(C)P(=O)(c1ccc(-c2ccc(-c3nc4cc(O[C@@H]5CO[C@H]6[C@@H]5OC[C@H]6O)[nH]c4cc3F)cc2)cc1)C(C)(C)C` [Compound I-2-67]: the EC150 worked out at 22 nM. Moreover, the maximal effect (Emax) (read-out: Emax) was determined as 555%.
The like results for `OCCOc1ccc(-c2ccc(-c3nc4cc(O[C@@H]5CO[C@H]6[C@@H]5OC[C@H]6O)[nH]c4cc3F)cc2)cc1` [Compound I-1-72] were, in that order, 3 nM and 353%.
The corresponding values for `COCCN(C)c1ccc(-c2ccc(-c3nc4cc(O[C@@H]5CO[C@H]6[C@@H]5OC[C@H]6O)[nH]c4cc3F)cc2)cc1` [Compound I-2-12] are 6.9 nM and 367%.
The corresponding values for `COCC(=O)Nc1ccc(-c2ccc(-c3nc4cc(O[C@@H]5CO[C@H](CO)C5)[nH]c4cc3F)cc2)cc1` [Compound I-2-74] are 1.2 nM and 656%.
As for `Cc1cc(-c2ccc(N=S(C)(C)=O)cc2)ccc1-c1nc2cc(O[C@@H]3CO[C@H]4[C@@H]3OC[C@H]4O)[nH]c2cc1F` [Compound I-1-48], the EC150 was 2.9 nM. For the same compound, the maximal response (Emax) (read-out: Emax) was determined as 576%.
The corresponding values for `CN(C)S(=N)(=O)c1ccc(-c2ccc(-c3nc4cc(O[C@@H]5CO[C@H]6[C@@H]5OC[C@H]6O)[nH]c4cc3F)cc2)cc1` (some centres unmarked) [Compound I-2-11] are 2.1 nM and 408%.
As to `COCCOc1ccc(-c2ccc(-c3nc4cc(O[C@@H]5CO[C@H](CO)C5)[nH]c4cc3F)cc2)cc1` [Compound I-2-02], where the note is “read-out: Emax”, the Emax was determined as 537%.
For the compound `COCC(=O)Nc1ccc(-c2ccc(-c3nc4cc(O[C@@H]5CO[C@H]6[C@@H]5OC[C@H]6O)[nH]c4cc3F)cc2)cc1` [Compound I-2-10], the EC150 worked out at 2.9 nM. Moreover, the Emax (read-out: Emax) was determined as 636%.
The like results for `NC(=O)c1ccc(-c2ccc(-c3nc4cc(O[C@@H]5CO[C@H]6[C@@H]5OC[C@H]6O)[nH]c4cc3F)cc2)cc1F` [Compound I-1-52] were, in that order, 2.2 nM and 469%.
As for `O=S1(=Nc2ccc(-c3ccc(-c4nc5cc(O[C@@H]6CO[C@H]7[C@@H]6OC[C@H]7O)[nH]c5cc4F)cc3)cc2)CCOCC1` [Compound I-1-42], the EC150 turned out to be 5.3 nM. Moreover, the Emax (read-out: Emax) came to 472%.
The corresponding values for `CS(C)(=O)=Nc1ccc(-c2ccc(-c3nc4cc(O[C@@H]5CO[C@H](CO)[C@H]5O)[nH]c4cc3F)cc2)cc1` [Compound I-2-23] are 28 nM and 224%.
The like results for `O[C@@H]1CO[C@H]2[C@@H]1OC[C@H]2Oc1cc2nc(-c3ccc(-c4ccc(OC5CNC[C@H]5F)cc4)cc3)c(F)cc2[nH]1` (some centres unmarked) [Compound I-2-28] were, in that order, 4.4 nM and 398%.
The like results for `O[C@@H]1CO[C@H]2[C@@H]1OC[C@H]2Oc1cc2nc(-c3ccc(-c4ccc(OC5CNOC5)cc4)cc3)c(F)cc2[nH]1` (some centres unmarked) [Compound I-2-27] were, in that order, 3.7 nM and 375%.
